Reference: patent EP0463212A1, “Imidazo[2,1-b]thiazole compound anti-ulcer agent containing the same” (NIKKEN CHEMICALS CO., LTD., priority 1990, dated 1992)

Legend:
[1] = test system: water-immersion stress ulcer; assay: Antiulcer activity against water-immersion stress ulcer model; assay type: in vivo, Wistar strain male rats; conditions: 100 mg/kg oral; for Ulcer index: 30 min before water immersion at 22 ± 1°C, stress load for 6 hours; for Inhibition rate: 30 min before water immersion stress for 6 hours, versus control group
Protocol: Antiulcer activity against water-immersion stress ulcer model
A suspension of each test compound in 5% gum arabic aqueous solution was orally given to Wistar strain male rats (at the age of 7 to 8 weeks, weighing 191 to 238 g; 7-8 rats in the group administered with the test compound; 14-16 rats in the control group) fasted for 24 hours at a dose of 100 mg of the test compound/5 ml/kg. Thirty minutes after administration, the animal was immersed up to the xiphisternum in water bath at 22 ± 1°C using a stress cage made by Tokyo University, Faculty of Pharmacology to apply a stress load for 6 hours. After applying the stress load, the rats had the cervical vertebra dislocated to death. Then, the stomach was excised and, spotted and linear erosion and a long diameter of ulcer were microscopically measured to determine an ulcer index and an inhibition rate.
(§1) In the control group, 5% gum arabic aqueous solution was orally administered at a dose of 5 ml/kg.

ethanol-induced ulcer = assay: Antiulcer activity against ethanol-induced ulcer model; assay type: in vivo, Wistar strain male rats; conditions: 100 mg/kg oral; for Ulcer index: 30 min before absolute ethanol 5 ml/kg oral, 1 hour after ethanol; for Inhibition rate: versus control group
Protocol: Antiulcer activity against ethanol-induced ulcer model
A suspension of each test compound in 5% gum arabic aqueous solution was orally given to Wistar strain male rats (at the age of 7 to 8 weeks, weighing 180 to 250 g; 5-9 rats in the group administered with the test compound; 4-9 rats in the control group) fasted for 24 hours at a dose of 100 mg of the test compound/5 ml/kg. Thirty minutes after administration, absolute ethanol was further orally administered at a dose of 5 mℓ/kg. One hour after administration of absolute ethanol, the stomach was excised under ethereal anesthesia and the area of an ulcerated portion (mm²) (using microscope) or the proportion (%) thereof to all area of gastric wall (by computer image analysis) were measured to determine an ulcer index and an inhibition rate.
as §1

[2] = test system: SLC-ICR or SLC-ddy strain male mice; assay: Acute toxicity; assay type: in vivo; conditions: oral, once, observed for 7 days
Protocol: A suspension of each test compound in 5% gum arabic aqueous solution was orally given to SLC-ICR or SLC-ddy strain male mice (at the age of 6 to 7 weeks, weighing 26.6 to 33.6 g; 3-8 mice in one group) forcedly once at a dose of 500 mg and 1,000mg of the test compound/5mℓ/kg. For 7 days after the administration, the mice were observed whether they were dead or alive.

gastric juice secretion = assay: Gastric juice secretion inhibition activity (pyloric ligature); assay type: in vivo, Wistar strain male rats; conditions: 100 mg/kg oral; for Gastric juice (pH) / Free HCℓ / Pepsin output / Total acidity: four hours after; for Free HCℓ: Töpfer reagent; for Pepsin output: casein as substrate; for Total acidity: phenolphthalein reagent; for Gastric juice: gastric juice collected four hours after
Protocol: Gastric juice secretion inhibition activity
A suspension of each test compound in 5% gum arabic aqueous solution was orally given to Wistar strain male rats (at the age of 7 to 8 weeks, weighing 192 to 241 g; 7-9 rats in the group administered with the test compound; 15 rats in the control group) fasted for 24 hours at a dose of 100 mg of the test compound/5 ml/kg. Thirty minutes after administration (the compounds of Examples 3 and 4) or 60 minutes after administration (the compounds of Examples 1, 2, 5, 6 and 7), pyloric ligature was made under ethereal anesthesia. Four hours after, the stomach was excised under ethereal anesthesia to collect gastric juice. The collected gastric juice was centrifuged (2500 rpm) at 4°C for 10 minutes. After the supernatant was collected, an amount of the gastric juice and its pH were measured using a pH meter. Furthermore, an amount of free hydrochloric acid and the total acidity were measured with Töpfer reagent and phenolphthalein reagent, respectively. Using a part of the gastric juice, pepsin output in the gastric juice was measured using casein as substrate in a manner similar to the method of Anson et al.
as §1

aspirin-induced ulcer = assay: Antiulcer activity against aspirin-induced ulcer model; assay type: in vivo, Wistar strain male rats; conditions: 100 mg/kg oral, 30 min before aspirin 200 mg/kg oral; for Ulcer index: stomach excised 7 hours after aspirin, rats fasted 24 hours; for Inhibition rate: versus control group
Protocol: Antiulcer activity against aspirin-induced ulcer model
A suspension of each test compound in 5% gum arabic aqueous solution was orally given to Wistar strain male rats (at the age of 7 to 8 weeks, weighing 180 to 227 g; 7-8 rats in the group administered with the test compound; 14-16 rats in the control group) fasted for 24 hours at a dose of 100 mg of the test compound/5 ml/kg. Thirty minutes after administration, aspirin was further orally administered at a dose of 200 mg/kg. Seven hours after administration of aspirin, stomach was excised under ethereal anesthesia and spotted and linear erosion and a long diameter of ulcer were microscopically measured to determine an ulcer index and an inhibition rate.
as §1

[3] = area of ulcerated portion (microscope)
[4] = pyloric ligature 30 minutes after administration
[5] = proportion of ulcerated area to all area of gastric wall (computer image analysis)
[6] = pyloric ligature 60 minutes after administration

SMILES | Ulcer index [1] [mm] | Inhibition rate [1] [%] | Ulcer index (ethanol-induced ulcer; [3]) | Inhibition rate (ethanol-induced ulcer; from ulcer index in mm^2) [%] | Mortality rate (No. of death/No. of treated) ([2]; 500 mg/kg) | Mortality rate (No. of death/No. of treated) ([2]; 1000 mg/kg) | Gastric juice (pH) (gastric juice secretion; [4]) | Free HCℓ (gastric juice secretion; [4]) [mEq/l] | Pepsin output (gastric juice secretion; [4]) [units/hr] | Total acidity (gastric juice secretion; [4]) [mEq/l] | Gastric juice (gastric juice secretion; [4]) [mL] | Ulcer index (aspirin-induced ulcer) [mm] | Inhibition rate (aspirin-induced ulcer) [%] | Ulcer index (ethanol-induced ulcer; [5]) [%] | Inhibition rate (ethanol-induced ulcer; from ulcer index in %) [%] | Gastric juice (pH) (gastric juice secretion; [6]) | Free HCℓ (gastric juice secretion; [6]) [mcEq/100g] | Pepsin output (gastric juice secretion; [6]) | Total acidity (gastric juice secretion; [6]) [mcEq/100g] | Gastric juice (gastric juice secretion; [6]) [mℓ/100g]
Cc1nc2scc(C)n2c1C(O)c1ccccc1 (stereo not drawn) [Ex. 8, 3,6-dimethyl-5-(hydroxy-phenyl)-methylimidazo[2,1-b]-thiazole] | 2.8 ± 0.5 | 82.0 | 15.3 ± 8.5^** mm^2 | 82.2 |  |  |  |  |  |  |  |  |  |  |  |  |  |  |  | 
Cc1nc2sccn2c1C(O)c1ccccc1 (stereo not drawn) [Ex. 3, 5-(hydroxy-phenyl)-methyl-6-methyl-imidazo[2,1-b]thiazole] | 3.6 ± 2.0 | 83.3 |  |  | 2/6 | 3/3 | 1.66 ± 0.09 | 35.1 ± 5.0 | 157.7 ± 17.6 | 66.6 ± 4.7 | 6.4 ± 0.7 | 31.7 ± 5.9 | 44.8 |  |  |  |  |  |  | 
Cc1nc2sccn2c1C(O)c1ccc(F)cc1 (stereo not drawn) [Ex. 11, 5-{hydroxy-(4-fluorophenyl)}methyl-6-methylimidazo[2,1-b]thiazole] |  |  |  |  |  |  |  |  |  |  |  |  |  | 1.2 ± 0.5 | 92.9 |  |  |  |  | 
COc1ccc(C(O)c2c(C)nc3sccn23)cc1OC (stereo not drawn) [Ex. 10, 5-{hydroxy-(3,4-dimethoxyphenyl)}-methyl-6-methyl-imidazo[2,1-b]thiazole] |  |  |  |  |  |  |  |  |  |  |  |  |  | 2.7 ± 0.9 | 84.0 |  |  |  |  | 
CCCCc1sc2nc(C)c(C(O)c3ccccc3)n2c1C (stereo not drawn) [Ex. 7, 2-butyl-3,6-dimethyl-5-(hydroxy-phenyl)-methylimidazo[2,1-b]-thiazole] | 25.5 ± 5.5 |  |  |  | 0/5 | 0/5 |  |  |  |  |  | 65.1 ± 8.5 | 8.2 |  |  | 1.13 ± 0.03 | 220.6 ± 32.5 | 27.2 ± 2.3 mg of tyrosine/100g | 260.5 ± 32.9 | 2.91 ± 0.29
CCCCc1sc2nc(C)c(C(O)CCC)n2c1C (stereo not drawn) [Ex. 6, 2-butyl-3,6-dimethyl-5-(1-hydroxybutyl)-imidazo[2,1-b]thiazole] | 18.8 ± 4.7 | 20.7 |  |  | 0/5 | 0/5 |  |  |  |  |  | 37.5 ± 7.4 | 47.1 |  |  | 1.36 ± 0.17 | 132.7 ± 33.8 | 21.6 ± 2.7 mg of tyrosine/100g | 172.6 ± 36.5 | 2.00 ± 0.27
Cc1ccc(C(O)c2c(C)nc3sccn23)cc1 (stereo not drawn) [Ex. 9, 5-{hydroxy-(4-methylphenyl)}methyl-6-methylimidazo[2,1-b]thiazole] |  |  |  |  |  |  |  |  |  |  |  |  |  | 6.8 ± 1.5 | 59.8 |  |  |  |  | 
Cc1nc2scc(C)n2c1C(O)c1ccc(F)cc1 (stereo not drawn) [Ex. 12, 3,6-dimethyl-5-{hydroxy-(4-fluorophenyl)}-methylimidazo[2,1-b]-thiazole] |  |  |  |  |  |  |  |  |  |  |  |  |  | 6.3 ± 1.3 | 62.7 |  |  |  |  | 
CCCC(O)c1c(C)nc2sccn12 (stereo not drawn) [Ex. 4, 5-(1-hydroxybutyl)-6-methylimidazo[2,1-b]-thiazole] | 7.4 ± 1.5 | 68.2 | 9.2 ± 3.1^** mm^2 | 94.2 | 3/8 | 5/5 | 2.54 ± 0.27 | 14.3 ± 7.4 | 83.1 ± 19.4 | 68.8 ± 3.6 | 3.6 ± 0.8 | 41.3 ± 3.8 | 38.2 |  |  |  |  |  |  | 
CCCCc1sc2nc(C)c(CO)n2c1C [Ex. 2, 2-butyl-3,6-dimethyl-5-hydroxymethylimidazo[2,1-b]thiazole] | 13.3 ± 3.9 | 43.9 |  |  | 0/5 | 0/5 |  |  |  |  |  | 52.7 ± 7.8 | 25.7 |  |  | 1.29 ± 0.08 | 111.0 ± 36.3 | 15.9 ± 2.1 mg of tyrosine/100g | 147.2 ± 37.4 | 1.63 ± 0.28
Cc1nc2sccn2c1C(C)O (stereo not drawn) [Ex. 5, 5-(1-hydroxyethyl)-6-methylimidazo[2,1-b]-thiazole] | 19.5 ± 5.8 | 17.7 |  |  | 2/5 | 3/5 |  |  |  |  |  | 29.6 ± 6.8 | 58.3 |  |  | 1.48 ± 0.11 | 68.4 ± 19.6 | 16.6 ± 2.2 mg of tyrosine/100g | 117.0 ± 20.8 | 1.41 ± 0.15
Cc1nc2scc(C)n2c1CO [Ex. 1, 3,6-dimethyl-5-hydroxymethylimidazo[2,1-b]thiazole] | 2.6 ± 0.9 | 89.0 |  |  | 0/5 | 1/5 |  |  |  |  |  | 38.6 ± 7.9 | 45.6 |  |  | 2.02 ± 0.31 | 33.9 ± 14.9 | 12.0 ± 1.6 mg of tyrosine/100g | 70.6 ± 17.4 | 1.12 ± 0.18
